Test results from US9999656B2, “Treatment of short bowel syndrome patients with colon-in-continuity” (Shire-NPS Pharmaceuticals, Inc., priority 2004, dated 2018).

Experiments:
[1] = system: patients with short bowel syndrome (SBS); assay: 72-hour nutrient balance studies in open-label pilot study of teduglutide; assay type: in vivo, human
Protocol: This was an open-label, pilot study to determine the safety and effect of teduglutide in patients with short bowel syndrome (SBS). The patient's history was reviewed and a physical examination performed to determine eligibility before inclusion in the study. Estimated residual small intestine and colon lengths were determined by reviewing operative reports and available radiographic studies. Eligible patients were admitted as inpatients to hospital wards or General Clinic Research Centers (GCRC) on three separate occasions, 18 days apart, for the last four days and three nights of the baseline period and at the end of the treatment and follow-up periods. Treatment consisted of recombinant teduglutide (supplied by NPS Allelix, Mississauga, ON, Canada) formulated as a lyophilized powder with L-histidine, mannitol, and monobasic and dibasic sodium phosphate (Lot 8502901). Water was added to reconstitute the drug for administration by subcutaneous (s.c.) injections in the abdomen or thigh. Ten SBS patients with jejunostomy received 0.03 mg/kg/d, 0.10 mg/kg/d or 0.15 mg/kg/d once daily for 21 days. Five SBS patients with ≥50% colon-in-continuity received teduglutide 0.10 mg/kg/d once daily for 21 days.
The 72-hour nutrient balance studies were completed with each patient eating their usual diet, calculated from a seven-day food diary completed by the patient during the screening period. It was intended that patients eat the same quantity and quality of food and beverages during each admission. During the 72-hour balance periods, all oral intake (duplicate meals and beverages and declined food), fecal/stomal output, and urine were collected and weighed. All stool samples were refrigerated during the collection period. Stools and diets were separately homogenized and analyzed for energy content (by bomb calorimetry), nitrogen (by the macro-Kjeldahl's method), fat (by the gravimetric technique), and sodium and potassium (by atomic absorption).
Using the SAS (Version 8.2; SAS Institute, Cary, N.C.) statistical program, a Student's paired t test was employed that compared treatment to baseline values, and follow-up to baseline values. No comparisons were made between patients on different doses or with different anatomy due to the limited number of patients in the study. Data are expressed as mean±SD. A value of p<0.05 was considered significant.

[2] = system: intestinal mucosa of SBS patients; assay: Morphological analysis of intestinal biopsies (villus height, crypt depth, mitotic index); assay type: in vivo, human
Protocol: Endoscopic examinations were performed in each subject at the completion of baseline, treatment and follow-up phases. All tissue samples for measurement of villus height and crypt depth were prepared and analyzed in a blinded fashion by the same pathologist. Villus height and crypt depth were measured using light microscopy (eyepiece micrometer) as the mean of ten well-oriented villi and crypts. The number of mitotic figures per 100 crypt epithelial cells was calculated.

[3] = Half-life / AUC (pharmacokinetics); assay type: in vivo
Protocol: This greater effect could be related to differences in dose and half-life of GLP-2 and teduglutide, respectively. In the pilot study with native GLP-2, 400 μg was given twice daily (corresponding to 0.013±0.002 mg/kg/day, a range of 0.011-0.017 mg/kg/day). The teduglutide doses in the current study were 3-10 times higher, ranging from 0.03 to 0.15 mg/kg/day. […] If area under the curve (AUC) is critical for the wet weight absorption effect, the AUC during teduglutide treatment may well be 200 times greater than the AUC when using native GLP-2. In this study, effects of teduglutide on energy and macronutrient absorption were minor compared to effects on wet weight absorption. […] Nonetheless, the effect of teduglutide on absolute energy absorption is 1.5 to 4-fold higher than with native GLP-2 (441±634 kJ/day ([105±151 kcal/day] p=0.09) at the given doses and treatment periods. Thus, in contrast to H2-receptor antagonists, proton-pump inhibitors and octreotide that only affect wet weight absorption, native GLP-2 and teduglutide seem to affect both intestinal wet weight and energy absorption, with an additional positive effect on wet weight absorption in patients already treated with these non-GLP-2 agonists.

[4] = Body weight following teduglutide treatment; assay type: in vivo, human; conditions: not significant (p=0.120)
[5] = Group 3 SBS ≥50% colon-in-continuity, of N=5
[6] = Group 4 SBS high dietary compliance, N=10, 21 days, Days 18-21 vs baseline
[7] = Group 4 SBS high dietary compliance, N=10, follow-up Days 39-42 vs baseline
[8] = Group 4 SBS high dietary compliance, of N=10
[9] = jejunum / small intestine biopsies, Group 2 end-jejunostomy

Structure (SMILES): CC[C@H](C)[C@H](NC(=O)[C@H](Cc1ccccc1)NC(=O)[C@H](CC(=O)O)NC(=O)[C@H](CCCNC(=N)N)NC(=O)[C@H](C)NC(=O)[C@H](C)NC(=O)[C@H](CC(C)C)NC(=O)[C@H](CC(N)=O)NC(=O)[C@H](CC(=O)O)NC(=O)[C@H](CC(C)C)NC(=O)[C@@H](NC(=O)[C@@H](NC(=O)[C@H](CC(N)=O)NC(=O)[C@H](CCSC)NC(=O)[C@H](CCC(=O)O)NC(=O)[C@H](CC(=O)O)NC(=O)[C@H](CO)NC(=O)[C@H](Cc1ccccc1)NC(=O)[C@H](CO)NC(=O)CNC(=O)[C@H](CC(=O)O)NC(=O)CNC(=O)[C@@H](N)Cc1c[nH]cn1)[C@@H](C)O)[C@@H](C)CC)C(=O)N[C@@H](CC(N)=O)C(=O)N[C@@H](Cc1c[nH]c2ccccc12)C(=O)N[C@@H](CC(C)C)C(=O)N[C@H](C(=O)N[C@@H](CCC(N)=O)C(=O)N[C@H](C(=O)N[C@@H](CCCCN)C(=O)N[C@H](C(=O)N[C@H](C(=O)N[C@@H](CC(=O)O)C(=O)O)[C@@H](C)O)[C@@H](C)CC)[C@@H](C)O)[C@@H](C)CC [teduglutide, [Gly2]hGLP-2]
- Wet Weight Absorption (g/day), Patients With Beneficial Effect [1, 5]: 5
- Wet Weight Fecal, Patients With Beneficial Effect [1, 5]: 5
- decrease in fecal wet weight compared to baseline ([1]; Group 3 SBS ≥50% colon-in-continuity, 21-day treatment, stated as decrease): 822 ± 341 g/day
- Energy Absorption (% of intake), Effect of Treatment (Treatment minus Baseline) mean ± SD [1, 6]: 8±11 % of intake
- Energy Absorption, Effect of Treatment (Treatment minus Baseline) mean ± SD [1, 6]: 963 ± 1290 kJ/day
- Energy Fecal, Effect of Treatment (Treatment minus Baseline) mean ± SD [1, 6]: -1060 ± 1083 kJ/day
- Urine Wet Weight, Effect of Treatment (Treatment minus Baseline) mean ± SD [1, 6]: 725 ± 394 g/day
- Wet Weight Absorption (% of intake), Effect of Treatment (Treatment minus Baseline) mean ± SD [1, 6]: 23 ± 16 % of intake
- Wet Weight Absorption, Effect of Treatment (Treatment minus Baseline) mean ± SD [1, 6]: 746 ± 436 g/day
- Wet Weight Fecal, Effect of Treatment (Treatment minus Baseline) mean ± SD [1, 6]: -769 ± 447 g/day
- Energy Absorption (% of intake), Effect at Follow up (Follow up minus Baseline) mean ± SD [1, 7]: 3 ± 16 % of intake
- Energy Absorption, Effect at Follow up (Follow up minus Baseline) mean ± SD [1, 7]: 452 ± 1211 kJ/day
- Energy Fecal, Effect at Follow up (Follow up minus Baseline) mean ± SD [1, 7]: -98 ± 1674 kJ/day
- Urine Wet Weight, Effect at Follow up (Follow up minus Baseline) mean ± SD [1, 7]: 30 ± 285 g/day
- Wet Weight Absorption (% of intake), Effect at Follow up (Follow up minus Baseline) mean ± SD [1, 7]: 0 ± 27 % of intake
- Wet Weight Absorption, Effect at Follow up (Follow up minus Baseline) mean ± SD [1, 7]: 24 ± 576 g/day
- Wet Weight Fecal, Effect at Follow up (Follow up minus Baseline) mean ± SD [1, 7]: 93 ± 500 g/day
- Energy Absorption (% of intake), Patients With Beneficial Effect [1, 8]: 9
- Energy Absorption (kJ/day), Patients With Beneficial Effect [1, 8]: 9
- Energy Fecal, Patients With Beneficial Effect [1, 8]: 8
- Urine Wet Weight, Patients With Beneficial Effect [1, 8]: 10
- Wet Weight Absorption (% of intake), Patients With Beneficial Effect [1, 8]: 9
- Wet Weight Absorption (g/day), Patients With Beneficial Effect [1, 8]: 9
- Wet Weight Fecal, Patients With Beneficial Effect [1, 8]: 9
- decrease in fecal energy excretion compared to baseline ([1]; Group 4 SBS high dietary compliance, stated as reduction): 1060 ± 1083 kJ/day
- improved wet weight absorption ([1]; SBS patient population): 0.75 L
- effect on absolute energy absorption relative to native GLP-2 ([1]; at the given doses and treatment periods): 1.5 to 4 fold
- reversal of changes at follow-up ([1]; follow-up after cessation of dosing): Most changes in intestinal absorption and histology related to teduglutide treatment had reversed at follow-up
- effects on wet weight absorption relative to native GLP-2 pilot study ([1]; in vivo): almost two-fold
- number of SBS patients in whom absolute wet weight absorption increased as a percent of intake ([1]; of 15 SBS patients): 13
- number of SBS patients with decreases in energy excretion ([1]; of 15 SBS patients): 12
- number of SBS patients with increased absolute wet weight absorption compared to baseline ([1]; of 15 SBS patients): 15
- number of SBS patients with increased urine weight ([1]; of 15 SBS patients): 13
- sets of colonic biopsies with increased crypt depth ([2]; Group 3 colon-in-continuity): four of five
- increase in mitotic index (colonic biopsies) ([2]; colonic biopsies, Group 3 colon-in-continuity, not significant (p=0.170)): 76±112%
- mean increase in colonic crypt depth ([2]; colonic biopsies, Group 3 colon-in-continuity, not significant (p=0.330)): 13±22%
- increase in crypt depth [2, 9]: 22±18%
- increase in mitotic index [2, 9]: 115±108%
- increase in villus height [2, 9]: 38±45%
- number of patients with significant histological changes in the jejunum ([2]; of the 8 Group 2 patients who were biopsied): 7
- AUC during teduglutide treatment relative to AUC using native GLP-2 ([3]; 'may well be', estimate): ~200 times
- half-life ([3]; human, plasma, teduglutide, approximately): 0.9 to 2.3 h
- increase in body weight following teduglutide treatment [4]: 0.9 ± 2.1 kg
